Like-named read-outs stand apart in the source and are kept apart here.
How the values were obtained:
Format in all cases: physicochemical
[1] = Hydration study by DVS analysis (hydration-dehydration cycles versus relative humidity)
Method: Melting points (m.p.) of the intermediate detomidine free base and hydrochloride of Sample 5 measured in open capillary corresponded with the published literature and the DSC data and are presented in Table 5. In order to evaluate effect of humidity on different forms of detomidine, a hydration study was performed. Samples of detomidine free base and hydrochloride salt were subjected to DVS analysis. These observations are in accordance with the DVS results shown in FIGS. 5 and 6, for detomidine free base and detomidine HCl, respectively.
During the dehydration cycle, the monohydrate began to lose water at RH˜10% and converted into the anhydrate at RH=0%.
At the same time, the anhydrous form is not stable in atmospheric air and absorbs water at RH=30-50%.

[2] = Solubility in water (observation on the solid forms)
[3] = Solid form stability of the vacuum dried anhydrate, hermetically closed or exposed to atmospheric air
Method: The same monohydrate dried at elevated temperature (30-40 mbar 90° C.) converted completely into the anhydrous form.

[4] = Re-slurry in water: conversion of the solid form without complete dissolution; conditions: contact with water for 24 hrs, re-slurry at 24° C.

Cc1cccc(Cc2c[nH]cn2)c1C [detomidine free base, 4-[(2,3-dimethylphenyl)methyl]-1H-imidazole]
hygroscopicity ([1]; DVS, 24.4° C. (FIG. 5)): non-hygroscopic
water absorbed ([1]; at relative humidity (RH)>50%): more than 1%
solubility in water [2]: insoluble in water

Cc1cccc(Cc2c[nH]cn2)c1C [anhydrous form]
stability in atmospheric air ([1]; atmospheric air): not stable
RH at which the anhydrate absorbs water / transforms completely into the monohydrate ([1]; hydration cycle): 30-50%
RH at which the anhydrate did not absorb water ([1]; hydration cycle): < 30%
water uptake and form conversion after exposure to atmospheric air ([3]; after exposure to atmospheric air): absorbed water and converted to a mixture of anhydrate and monohydrate
water uptake and form conversion, hermetically closed ([3]; vacuum dried, hermetically closed): did not absorb water from the atmosphere and did not convert into the monohydrate
form conversion on contact with water [4]: completely converted

Cc1cccc(Cc2c[nH]cn2)c1C.Cl [detomidine hydrochloride]
reproducibility of anhydrate-monohydrate interconversion ([1]; four cycles of hydration-dehydration): good reproducibility
solubility in water ([2]; water, hydrochloride formed with aqueous HCl): soluble

Cc1cccc(Cc2c[nH]cn2)c1C [monohydrate]
absorption of additional water on increase of humidity ([1]; RH 70% to RH>90%): did not lead to absorption of additional water
RH at which the monohydrate began to lose water ([1]; dehydration cycle): ~10%
RH at which the monohydrate converted into the anhydrate ([1]; dehydration cycle): 0%

Cc1cccc(Cc2c[nH]cn2)c1C [Sample 2]
water level after absorption, cKF ([1]; anhydrous detomidine HCl after hydration): 7.7%
